{"source": "patent US7786147B2", "about": "“Analogs of choline for neuroprotection and cognitive enhancement in neurodegenerative disorders” (Medical College of Georgia Research Institute., priority 2001, dated 2010)", "key": {"[1]": {"system": "differentiated PC-12 cells", "assay": "MTT cell viability (neuroprotection) assay after neurotrophic factor withdrawal", "type": "cell-based", "design": "neuroprotective action after pretreatment with mecamylamine: dose or concentration left out as unconfirmed", "conditions": "for potency in neuroprotection relative to choline and its ethyl analogs (in words): effects at lowest dose 0.1 mM not much reduced from 10 mM", "protocol": "Cell Culture: PC12 cells were maintained in 150-cm^2 tissue-culture flasks in Dulbecco's Modified Eagles medium containing 7% horse serum, 7% fetal calf serum, 1% non-essential amino-acids and 1% streptomycin (DMEM). The cells were incubated at 37 C in a 5% CO2-enriched, humidified atmosphere. To attain maximum differentiation, the cells were maintained in DMEM.NGF medium for 7 days, with the medium being changed every 2 or 3 days.\nAssay for Cell viability. Cells were dissociated by trituration and plated at 1×10^4 cells per well on poly-L-lysine coated 96 well plates containing DMEM.NGF media. Next, the differentiated cells were incubated with the test drug at different concentrations for the specified period of time. Cell viability (cytotoxicity) was determined using the Cell Titer 96 non-radioactive cell proliferation/cytotoxicity assay kit (Promega), which is based on the cellular conversion of a 3-(4,5-dimethylthiazol-2-yl)-2,5-diphenyltetrazolium bromide (MTT) into a formazan product which can be detected spectrophotometrically. After deprivation of cells from NGF and serum, the medium was aspirated and 15 l of dye solution dissolved in DMEM was added. After an additional 4 hr incubation at 37 C, 100 l of solubilization/stop solution was added and the absorbance of solubilized MTT formazan products was measured at 570 nm.\nDifferentiated PC-12 cells were deprived of neurotrophic factors for 24 hr to promote cytotoxicity. Cell viability was measured by the MTT assay under control conditions, and in cultures in which a choline analog was introduced into the medium at the time of neurotrophic factor withdrawal. […] Choline and its mono-, di-, and tri-ethyl analogs produced a concentration dependent and intermediate level of neuroprotection improving cell viability by up to 40% of baseline."}, "[2]": {"target": "7 nicotinic acetylcholine receptor (Rattus norvegicus, UniProt Q05941)", "sequence (Q05941 23-502)": "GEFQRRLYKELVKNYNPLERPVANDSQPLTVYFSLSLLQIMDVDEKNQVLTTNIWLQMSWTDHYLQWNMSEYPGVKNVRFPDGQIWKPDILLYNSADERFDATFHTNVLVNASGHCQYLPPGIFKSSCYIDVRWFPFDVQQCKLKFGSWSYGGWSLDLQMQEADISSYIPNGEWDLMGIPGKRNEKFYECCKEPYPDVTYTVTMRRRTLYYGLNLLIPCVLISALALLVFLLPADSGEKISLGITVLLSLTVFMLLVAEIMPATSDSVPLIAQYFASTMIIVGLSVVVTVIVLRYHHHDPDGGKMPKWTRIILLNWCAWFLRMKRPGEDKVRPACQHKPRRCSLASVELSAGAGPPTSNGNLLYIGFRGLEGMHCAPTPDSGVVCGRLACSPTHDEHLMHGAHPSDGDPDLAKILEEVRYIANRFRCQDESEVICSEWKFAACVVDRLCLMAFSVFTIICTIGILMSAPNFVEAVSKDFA", "type": "binding", "conditions": "PC-12 cells; FIG. 8"}, "[3]": {"system": "differentiated PC-12 cells", "assay": "Cytoprotective effect (% Protection) with exposure 24 hours prior to growth factor withdrawal", "type": "cell-based", "conditions": "exposure 24 hours prior to removal of NGF and serum; FIGS. 11, 13A and B", "protocol": "The above-described differentiated PC-12 cells were exposed to the indicated concentrations (see FIGS. 13A and B) of the FIG. 12 choline analogs 24 hours prior to growth factor withdrawal (removal of nerve growth factor, and changing from serum-containing to serum-free medium). % Protection values were calculated as the ratio of ELISA-based absorbance values for [protected cells−deprived cells (no analog):control (non-deprived) cells−deprived cells]×100. Each data point in FIG. 13 represents data obtained from two separate assays each performed with 5-8 replicates per point."}}, "data": [{"smiles": "CC(=O)OCC[N+]1(C)CCCC1", "note": "[acetylpyrrolidinecholine]", "values": [{"measurement": "potency in neuroprotection relative to choline and its ethyl analogs (in words)", "setting": "[1]", "result": "more potent"}]}, {"smiles": "C[N+](C)(CCO)Cc1ccccc1.[Br-]", "note": "[benzylcholine]", "values": [{"measurement": "displacement of cell surface [125I]-bungarotoxin binding (in words)", "setting": "[2]", "result": "failed to significantly interact"}, {"measurement": "effect on cell viability (in words)", "setting": "[1]; PC-12 cells deprived of neurotrophic factors for 24 hr, FIG. 5", "result": "did not affect cell viability"}]}, {"smiles": "CN1CCCC1c1cccnc1", "note": "(stereo not drawn) [nicotine]", "values": [{"measurement": "cytoprotective effect, % Protection concentration-effect curve (in words)", "setting": "[3]", "result": "biphasic"}]}, {"smiles": "C[N+]1(CCO)CCCC1", "note": "[pyrrolidinecholine]", "values": [{"measurement": "affinity for the [125I]-bungarotoxin site relative to choline (in words)", "setting": "[2]", "result": "slightly more potent affinity"}, {"measurement": "displacement of cell surface [125I]-bungarotoxin binding (in words)", "setting": "[2]", "result": "fully displaced"}, {"measurement": "neuroprotective action after pretreatment with MLA", "setting": "[1]; MLA (10 nM) pretreatment, FIGS. 9 and 10", "result": "blocked"}, {"measurement": "potency in neuroprotection relative to choline and its ethyl analogs (in words)", "setting": "[1]", "result": "more potent"}, {"measurement": "neuroprotective action after pretreatment with mecamylamine", "setting": "[1]; mecamylamine pretreatment, FIGS. 9 and 10", "result": "blocked"}]}]}
